Test results published in BigSolDB 2.1.

Cn1c(=O)c2c(ncn2CCO)n(C)c1=O
Conditions | solubility (mole fraction)
in ethanol, 313.9 K | 0.001
in ethanol, 321.2 K | 0.0016
in ethanol, 325.7 K | 0.0023
in ethanol, 327.4 K | 0.0029
in ethanol, 332.5 K | 0.004
in ethanol, 336.8 K | 0.0055
in ethanol, 339.1 K | 0.0065
in ethanol, 339.7 K | 0.0068
in ethanol, 342.4 K | 0.0077
in ethanol, 343.8 K | 0.0081
in ethanol, 344.9 K | 0.0086
in n-octanol, 323.2 K | 0.0026
in n-octanol, 333.2 K | 0.0046
in n-octanol, 335.2 K | 0.006
in n-octanol, 338.4 K | 0.0074
in n-octanol, 343.5 K | 0.0095
in n-octanol, 351.8 K | 0.0149
in n-octanol, 355.5 K | 0.02
in n-octanol, 365.2 K | 0.0259
in water, 290.7 K | 0.0027
in water, 300.9 K | 0.0039
in water, 301.6 K | 0.0041
in water, 303.4 K | 0.0042
in water, 304.6 K | 0.0048
in water, 306 K | 0.0052
in water, 312.5 K | 0.0067
in water, 312.8 K | 0.0067
in water, 316.2 K | 0.0086
in water, 317.9 K | 0.0099
in water, 320.5 K | 0.0119
in water, 322.5 K | 0.0133
in water, 324.9 K | 0.0155
in water, 330.8 K | 0.0204
in water, 334.7 K | 0.026
in water, 342 K | 0.0447
in water, 347.3 K | 0.0623
in water, 348.4 K | 0.0808

Cn1cnc2c1c(=O)[nH]c(=O)n2C
solubility (mole fraction)
Conditions | 293.15 K | 298.15 K | 303.15 K | 308.15 K | 313.15 K | 318.15 K
in ethanol | 1.53e-05 | 2.33e-05 | 3.15e-05 | 3.85e-05 | 5.49e-05 | 6.34e-05
in n-octanol | 0.000214 | 0.000433 | – | 0.00061 | – | 0.000824
in water | 0.001 | 0.00101 | 0.00101 | 0.00103 | 0.00104 | 0.00104

Cn1c(=O)c2[nH]cnc2n(C)c1=O
Conditions | solubility (mole fraction)
in ethanol, 309.4 K | 0.0008
in ethanol, 313 K | 0.0013
in ethanol, 318.6 K | 0.002
in ethanol, 321.3 K | 0.0027
in ethanol, 325.2 K | 0.0036
in ethanol, 332.8 K | 0.005
in ethanol, 340.1 K | 0.0083
in ethanol, 345.3 K | 0.0123
in n-octanol, 322.3 K | 0.001
in n-octanol, 327.2 K | 0.0013
in n-octanol, 330.2 K | 0.0017
in n-octanol, 336.7 K | 0.0025
in n-octanol, 337.5 K | 0.0027
in n-octanol, 343.8 K | 0.0045
in n-octanol, 352.1 K | 0.0063
in n-octanol, 355.3 K | 0.0069
in n-octanol, 364.5 K | 0.008
in water, 308.5 K | 0.0004
in water, 310.6 K | 0.0005
in water, 314.5 K | 0.0007
in water, 316.7 K | 0.0009
in water, 319.3 K | 0.001
in water, 323.4 K | 0.0012
in water, 326.2 K | 0.0018
in water, 333.3 K | 0.0026
in water, 337.6 K | 0.0039
in water, 342.6 K | 0.0064
in water, 343.1 K | 0.007
